# Source: patent US6030960A, “Method of treating hepatitis virus infections” (priority 1998, dated 2000)
# Where “and” joins values, the source holds several entries; their conditions need not be identical. Identical values can stand only once. Like-named read-outs stand apart in the source and are kept apart here.
# Assays:
# Assay type in all cases: cell-based
# [1] = Cytotoxicity of alkyl lipids, neutral red dye uptake (Table 1); details: human, hep-g2 cells
# Method in brief: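 HepG2 cells carrying tandem HBV genomes, with a G418-resistance plasmid, were given four serial compound concentrations in triplicate in RPMI-1640 for nine days at 37° C, with periodic medium replacement. Viability was measured by 0.01% neutral red uptake (A510) and expressed as percent of untreated control wells ±SD.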
# [2] = Cytotoxicity in HBV persistently infected human HEP G2 cells, neutral red dye uptake (Table 5); details: human, hep-g2 cells, read-out: % of Control Neutral Red Dye Uptake
# Method in brief: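 HBV-transfected HEP-G2 monolayers in RPMI-1640 were given compound at four serial concentrations in triplicate for nine days at 37 °C, with periodic medium replacement. Toxicity from 0.01% neutral red uptake (A510), as percent of nine untreated control wells on the same plate.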
# Hepatitis B virus [3] = experiment: Effect of alkyl lipids on HBV replication in HBV persistently infected human HEP G2 cells (Table 6); details: 10 μM
# Method in brief: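 Persistently HBV-infected HepG2 cells exposed to compound for nine days at 37 °C, intracellular HBV DNA analysed 24 h after day nine. Episomal 3.2-3.8 Kb genomes and replication intermediates normalized to integrated HBV DNA; virion DNA detection cut-off 0.1 pg DNA/ml culture medium.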
# Hepatitis B virus [4] = experiment: Anti-hepatitis B virus activity in HEP-G2 cells persistently infected with HBV (Table 2); details: Hepatitis B virus, HepG2, 216 h
# Method in brief: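 HBV-persistently infected HepG2 cells were dosed daily with 10 μM compound in 20% FBS medium for 9 days. Medium HBsAg and HBeAg were measured by EIA and virion DNA by slot-blot hybridisation, each relative to untreated controls. EC90 (90% drop in HBV DNA replication intermediates) came from linear regression.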
# Hepatitis B virus [5] = experiment: Effects of CP-51 on HBV-induced DNA and RNA synthesis (Table 4); details: for mrna remaining at 10 µM / activity at 10 µM: Hepatitis B virus, HepG2, 216 h
# Protocol: (§1) HEP-G2 cells persistently infected with HBV were treated daily with fresh D-MEM containing 20% FBS and 10 μM compound. After 9 days incubation and treatment, the overlay medium was harvested to assay the quantity of Hepatitis B virus s antigen (HBsAg) and HBeAg by EIA (Abbott Laboratories). The overlay medium was diluted to levels of antigen in the linear range of the assay. Standard curves using dilutions of positive HBsAg and HBeAg controls were included in each assay. Virion DNA was assayed using the method set forth in Korba and Gerin, Antiviral Res., 19, 5,5-70 (1992), incorporated by reference herein. HBV DNA was extracted from the overlay medium containing virus particles and analyzed by a slot-blot hybridization technique using ^32 P-labelled 3.2 Kb Eco R1 HBV DNA fragment by comparisons to HBV standards present on nitrocellulose filters using an AMBIS beta scanner. EC90 values (90% effective concentration, i.e., drug concentration which induces a 90% decrease in the levels of HBV DNA replication intermediates in treated versus control cells) were calculated by linear regression analysis. The relative levels of HBsAg, HBeAg and virion DNA were calulated as a percentage of the average levels obtained from the untreated controls.
# Experiments were performed to determine the effects of CP-51 on HBV induced DNA and RNA syntheses. HEP-G2 cells persistently infected with HBV were treated daily with fresh D-MEM containing 20% FBS and 10 μM compound. After 9 days incubation and treatment the cells and overlay medium were harvested separately to assay the quantity of nucleic acids. Details of the methodology of the assays are given in Section B above. Extracellular virion DNA in untreated cells ranged from 50 to 150 pg/ml in the overlay medium. Intracellular HBV DNA replication intermediates (RI) in untreated cells ranged from 50 to 100 pg/μg cell DNA. Hybridization analysis results in about 1 pg intracellular HBV DNA/μg cellular DNA to 2-3 genomic copies per cell and 1.0 pg of extracellular HBV DNA/ml overlay medium to […] viral particles/ml. HBV RNA was analyzed by Northern blot hybridization analysis using a ^32 P-labeled 3.2 Kb gel-purified cloned genomic probe. Quantitive analysis of intracellular HBV DNA anc 14BV RNA was performed using an AMBIS beta scanner.
# Hepatitis B virus [6] = experiment: CP-51 against HBV-induced antigen syntheses in HEP-G2 cells persistently infected with HBV (Table 3); details: for activity at 10 µM: Hepatitis B virus, HepG2, 216 h
# Protocol: as §1
# In contrast, CP-51 inhibited HBeAg and HBcAg syntheses by 76 and 68%, respectively.
# [7] = read-out: Relative Level of Virion DNA
structure (smiles),measurement,setting,value
"Nc1ccn([C@H]2CC[C@@H](CO)O2)c(=O)n1 [2',3'-dideoxycytidine, 2', 3'-dideoxycytidine, reference compound]","viability at 216 h, 3 µM",[1],100 ± 1%
same,"viability at 216 h, 10 µM",[1],102 ± 1%
same,"viability at 216 h, 30 µM",[1],99 ± 2%
same,"viability at 216 h, 100 µM",[1],35 ± 2%
same,"viability at 216 h, 10 µM",[2]; Trial 1,101 ± 2%
same,"viability at 216 h, 30 µM",[2]; Trial 1,100 ± 1%
same,"viability at 216 h, 100 µM",[2]; Trial 1,97 ± 2%
same,"viability at 216 h, 300 µM",[2]; Trial 1,34 ± 4%
same,"viability at 216 h, 10 µM",[2]; Trial 2,101 ± 3%
same,"viability at 216 h, 30 µM",[2]; Trial 2,102 ± 2%
same,"viability at 216 h, 300 µM",[2]; Trial 2,40 ± 4%
same,"viability at 216 h, 1000 µM","[2]; Trial 2, 1000 μM",12 ± 5%
same,"viability at 216 h, 10 µM",[2]; Trial 3,100 ± 1%
same,"viability at 216 h, 30 µM",[2]; Trial 3,102 ± 1%
same,"viability at 216 h, 100 µM",[2]; Trial 3,99 ± 2%
same,"viability at 216 h, 300 µM",[2]; Trial 3,35 ± 2%
same,HBV Virion DNA,Hepatitis B virus [3]; Day 0,67 pg/ml Culture Medium and 64 pg/ml Culture Medium and 58 pg/ml Culture Medium and 59 pg/ml Culture Medium
same,HBV Virion DNA,Hepatitis B virus [3]; Day 3,49 pg/ml Culture Medium and 55 pg/ml Culture Medium and 50 pg/ml Culture Medium and 58 pg/ml Culture Medium
same,HBV Virion DNA,Hepatitis B virus [3]; Day 6,20 pg/ml Culture Medium and 18 pg/ml Culture Medium and 17 pg/ml Culture Medium and 15 pg/ml Culture Medium
same,"Intracellular HBV DNA, RI (replication intermediates)",Hepatitis B virus [3]; nine days,8 pg/μg Cell DNA and 7 pg/μg Cell DNA and 9 pg/μg Cell DNA
same,activity at 10 µM,Hepatitis B virus [4]; read-out: Relative Level of HBeAg,108%
same,activity at 10 µM,Hepatitis B virus [4]; read-out: Relative Level of HBsAg,106%
same,activity at 10 µM,Hepatitis B virus [4]; [7],2%
same,effect on HBV-induced DNA and RNA syntheses,"Hepatitis B virus [5]; 10 μM, in words",inhibited HBV-induced DNA synthesis but not RNA syntheses
same,mrna remaining at 10 µM,Hepatitis B virus [5]; read-out: Relative Level of 2.1 Kb RNA,105%
same,activity at 10 µM,Hepatitis B virus [5]; read-out: Relative Level of 3.2 Kb DNA,46%
same,mrna remaining at 10 µM,Hepatitis B virus [5]; read-out: Relative Level of 3.6 Kb RNA,92%
same,activity at 10 µM,Hepatitis B virus [5]; read-out: Relative Level of HBV RI,6%
same,mrna remaining at 10 µM,Hepatitis B virus [5]; read-out: Relative Level of Total RNA,92%
same,activity at 10 µM,Hepatitis B virus [5]; [7],2%
same,inhibitory activity against HBV-induced antigen syntheses,"Hepatitis B virus [6]; 10 μM, in words",no inhibitory activity
same,activity at 10 µM,Hepatitis B virus [6]; read-out: Relative Levels of HBcAg,102%
same,activity at 10 µM,Hepatitis B virus [6]; read-out: Relative Levels of HBeAg,95%
same,activity at 10 µM,Hepatitis B virus [6]; read-out: Relative Levels of HBsAg,96%
